In patent US8119645B2, “Fungicide hydroximoyl-tetrazole derivatives” (Bayer Cropscience AG, priority 2006, dated 2012):

Test: logP by reversed-phase HPLC (EEC Directive 79/831 Annex V.A8)
Assay type: physicochemical
Conditions: for LogP: HPLC C18, 40° C., 0.1% aqueous formic acid / acetonitrile gradient
Protocol: Temperature: 40° C.; Mobile phases: 0.1% aqueous formic acid and acetonitrile; linear gradient from 10% acetonitrile to 90% acetonitrile.

SMILES	LogP	chromatographic logP
Cn1nnnc1C(=NOCc1cccc(NC(=O)C(C)(C)C)n1)c1csc(-c2ccccc2)n1 [Compound 176]	3.7	–
Cc1nnnn1C(=NOCc1csc(NC(=O)C(C)C)n1)c1ccsc1Cl [Compound 12]	2.86	–
Cc1nnnn1C(=NOCc1csc(NC(=O)OCc2ccccc2)n1)c1ccc(Cl)s1 [Compound 109]	3.93	–
COCCOC(=O)Nc1nc(CON=C(c2ccc(C)o2)n2nnnc2C)cs1 [Compound 71]	2.37	–
Cc1nnnn1C(=NOCc1csc(NC(=O)NCCc2ccccc2)n1)c1ccsc1 [Compound 24]	2.86	–
COCCOC(=O)Nc1nc(CON=C(c2ccc(C)s2)n2nnnc2C)cs1 [Compound 130]	2.76	–
Cc1nnnn1C(=NOCCc1csc(NC(=O)C(C)(C)C)n1)c1ccsc1 [Compound 51]	3.19	–
Cc1nnnn1C(=NOCc1cccc(N)n1)c1ccsc1 [Compound 19]	1.28	–
Cc1nnnn1/C(=N/OCc1csc(N)n1)c1ccsc1 [Compound 20, O-(2-Amino-1,3-thiazol-4-yl)methyl-(thien-3-yl)-(5-methyltetrazol-1-yl)methanone oxime]	–	1.32
Cc1nnnn1C(=NOCc1csc(NC(=O)C2CC2)n1)c1ccc(-c2ccc(Cl)c(Cl)c2)o1 [Compound 84]	3.83	–
COCCOC(=O)Nc1nc(CON=C(c2ccc(Cl)s2)n2nnnc2C)cs1 [Compound 112]	3.05	–
CCCCCC(=O)Nc1nc(CON=C(c2ccsc2)n2nnnc2C)cs1 [Compound 30]	3.25	–
Cc1nnnn1C(=NOCc1csc(NC(=O)CCCc2ccccc2)n1)c1ccc(Cl)s1 [Compound 107]	4.12	–
CCCC(=O)Nc1nc(CON=C(c2ccc(C)s2)n2nnnc2C)cs1 [Compound 114]	2.88	–
C=CCC(=O)Nc1nc(CON=C(c2ccsc2)n2nnnc2C)cs1 [Compound 40]	2.51	–
Cc1nnnn1C(=NOCc1csc(N)n1)c1ccc(-c2ccc(Cl)c(Cl)c2)o1 [Compound 81]	2.83	–
Cc1ccc(C(=NOCc2cccc(N)n2)n2nnnc2C)s1 [Compound 124]	1.51	–
Cn1nnnc1/C(=N/OCc1cccc(N)n1)c1csc(-c2ccccc2)n1 [Compound 174, O-(2-Aminopyridin-6-yl)methyl-(2-phenyl-1,3-thiazol-4-yl)-(1-methyltetrazol-5-yl)methanone oxime]	–	1.57
Cc1ccc(C(=NOCc2csc(NC(=O)C3CC3)n2)n2nnnc2C)s1 [Compound 119]	2.84	–
C=CCC(=O)Nc1nc(CON=C(c2ccsc2Cl)n2nnnc2C)cs1 [Compound 6]	2.73	–
Cc1nnnn1C(=NOCc1csc(NC(=O)Nc2ccccc2)n1)c1ccsc1 [Compound 21]	2.88	–
Cc1nnnn1C(=NOCc1csc(NC(=O)C2CCCC2)n1)c1ccc(Br)s1 [Compound 90]	3.66	–

SMILES	LogP	chromatographic logP
Cn1nnnc1C(=NOCc1csc(NC(=O)OCCc2ccccc2)n1)c1csc(-c2ccccc2)n1 [Compound 166]	4.06	–
COCCOCC(=O)Nc1nc(CON=C(c2ccc(Br)s2)n2nnnc2C)cs1 [Compound 98]	2.94	–
COCCOCC(=O)Nc1cccc(CON=C(c2ccsc2Cl)n2nnnc2C)n1 [Compound 15]	2.61	–
Cc1ccc(C(=NOCc2csc(NC(=O)COCc3ccccc3)n2)n2nnnc2C)o1 [Compound 67]	3.12	–
Cc1ccc(C(=NOCc2csc(NC(=O)C3CCCC3)n2)n2nnnc2C)o1 [Compound 62]	2.98	–
Cc1ccc(C(=NOCc2csc(NC(=O)C(C)C)n2)n2nnnc2C)o1 [Compound 66]	2.57	–
Cc1ccc(C(=NOCc2csc(NC(=O)C(C)(C)C)n2)n2nnnc2C)o1 [Compound 59]	2.95	–
Cc1nnnn1C(=NOCc1csc(NC(=O)CCc2ccccc2)n1)c1ccsc1 [Compound 33]	3.14	–
Cc1nnnn1C(=NOCc1csc(NC(=O)Cc2ccccc2)n1)c1ccsc1Cl [Compound 10]	3.21	–
Cc1ccc(C(=NOCc2csc(NC(=O)Cc3ccccc3)n2)n2nnnc2C)o1 [Compound 65]	2.92	–
Cc1nnnn1C(=NOCc1csc(NC(=O)CCCCl)n1)c1ccsc1 [Compound 34]	2.67	–
Cn1nnnc1/C(=N/OCc1cccc(N2C(=O)c3ccccc3C2=O)n1)c1csc(-c2ccccc2)n1 [Compound 173, O-(2-Phtalimidopyridin-6-yl)methyl-(2-phenyl-1,3-thiazol-4-yl)-(1-methyitetrazol-5-yl)methanone oxime]	–	3.46
Cn1nnnc1C(=NOCc1cccc(NC(=O)Cc2ccccc2)n1)c1csc(-c2ccccc2)n1 [Compound 175]	3.72	–
CCCCCCCCC(=O)Nc1nc(CON=C(c2ccsc2Cl)n2nnnc2C)cs1 [Compound 11]	4.77	–
CCCCCNC(=O)Nc1nc(CON=C(c2ccsc2)n2nnnc2C)cs1 [Compound 22]	2.99	–
Cc1nnnn1C(=NOCc1cccc(N)n1)c1ccsc1Cl [Compound 14]	1.39	–
CCCCCC(=O)Nc1cccc(CON=C(c2ccsc2Cl)n2nnnc2C)n1 [Compound 3]	3.65	–
CCCCCC(=O)Nc1nc(CON=C(c2csc(-c3ccccc3)n2)c2nnnn2C)cs1 [Compound 171]	3.94	–
CCCCCOC(=O)Nc1cccc(CON=C(c2csc(-c3ccccc3)n2)c2nnnn2C)n1 [Compound 177]	4.56	–
Cc1nnnn1C(=NOCc1csc(NC(=O)C(C)(C)C)n1)c1ccc(-c2ccccc2)s1 [Compound 53]	4.24	–
Cc1ccc(C(=NOCc2cccc(N)n2)n2nnnc2C)o1 [Compound 72]	1	–
Cc1nnnn1C(=NOCc1csc(NC(=O)C2CC2)n1)c1ccc(Cl)s1 [Compound 101]	3	–

SMILES	LogP	chromatographic logP
Cc1ccc(C(=NOCc2csc(NC(=O)CCCc3ccccc3)n2)n2nnnc2C)s1 [Compound 121]	3.81	–
Cn1nnnc1C(=NOCc1csc(NC(=O)c2ccccc2)n1)c1csc(-c2ccccc2)n1 [Compound 169]	3.62	–
Cc1nnnn1C(=NOCc1csc(NC(=O)C2CC2)n1)c1ccc(Br)s1 [Compound 96]	3.04	–
Cc1ccc(C(=NOCc2csc(NC(=O)C3CC3)n2)n2nnnc2C)o1 [Compound 68]	2.41	–
Cc1nnnn1C(=NOCc1csc(NC(=O)NC2CCCCC2)n1)c1ccsc1 [Compound 25]	2.92	–
Cc1ccc(C(=NOCc2cccc(NC(=O)OCCc3ccccc3)n2)n2nnnc2C)o1 [Compound 75]	3.78	–
Cc1nnnn1/C(=N/OCc1csc(NC(=O)C(C)(C)C)n1)c1ccsc1 [Compound 18, O-(2-tert-Butylcarbonylamino-1,3-thiazol-4-yl)methyl-(thien-3-yl)-(5-methyltetrazol-1-yl)methanone oxime]	–	2.94
CCCCCC(=O)Nc1nc(CON=C(c2ccc(C)o2)n2nnnc2C)cs1 [Compound 64]	3.26	–
Cc1nnnn1C(=NOCc1csc(NC(=O)c2ccccc2)n1)c1ccsc1 [Compound 35]	2.93	–
Cc1nnnn1C(=NOCc1csc(N)n1)c1ccc(-c2ccccc2)o1 [Compound 131]	2.13	–
CCCCCC(=O)Nc1nc(CON=C(c2ccc(Cl)s2)n2nnnc2C)cs1 [Compound 106]	4.12	–
COCCOCC(=O)Nc1nc(CON=C(c2ccc(C)o2)n2nnnc2C)cs1 [Compound 70]	2.23	–
Cn1nnnc1C(=NOCc1csc(NC(=O)C(C)(C)C)n1)c1csc(-c2ccccc2)n1 [Compound 170]	3.62	–
Cc1nnnn1C(=NOCc1csc(NC(=O)C2CC2)n1)c1ccc(-c2ccccc2)s1 [Compound 55]	3.7	–
Cc1nnnn1C(=NOCc1csc(NC(=O)c2ccccc2)n1)c1ccc(Br)s1 [Compound 91]	3.61	–
CCCCCCCCC(=O)Nc1nc(CON=C(c2ccc(-c3ccc(Cl)c(Cl)c3)o2)n2nnnc2C)cs1 [Compound 83]	5.85	–
CCCCCCCCC(=O)Nc1nc(CON=C(c2ccc(-c3ccccc3)o2)n2nnnc2C)cs1 [Compound 135]	5.01	–
Cc1nnnn1C(=NOCc1csc(NC(=O)CCCc2ccccc2)n1)c1ccsc1 [Compound 45]	3.49	–
Cc1nnnn1C(=NOCc1csc(NC(=S)NCCc2ccccc2)n1)c1ccsc1 [Compound 47]	3.65	–
CCCCCOC(=O)Nc1cccc(CON=C(c2ccc(C)s2)n2nnnc2C)n1 [Compound 126]	4.34	–
